Data as given in ChEMBL document CHEMBL4725440, “Peptoid NPhe in AGRP-Based c[Pro-Arg-Phe-Phe-Xxx-Ala-Phe-DPro] Scaffolds Maintain Mouse MC4R Antagonist Potency” (ACS Med Chem Lett, 2020).
Where a SMILES comes first, the peptide text is derived from it.

Key:
Assay type in all cases: functional
[1] = target: Melanocyte-stimulating hormone receptor (Mus musculus) (UniProt Q01727); assay: Agonist activity at mouse MC1R at 100 uM by alphascreen cAMP assay relative to NDP-MSH; settings: filed as partial agonist
Melanocyte-stimulating hormone receptor (Mus musculus), sequence (Q01727 whole entry, looked up): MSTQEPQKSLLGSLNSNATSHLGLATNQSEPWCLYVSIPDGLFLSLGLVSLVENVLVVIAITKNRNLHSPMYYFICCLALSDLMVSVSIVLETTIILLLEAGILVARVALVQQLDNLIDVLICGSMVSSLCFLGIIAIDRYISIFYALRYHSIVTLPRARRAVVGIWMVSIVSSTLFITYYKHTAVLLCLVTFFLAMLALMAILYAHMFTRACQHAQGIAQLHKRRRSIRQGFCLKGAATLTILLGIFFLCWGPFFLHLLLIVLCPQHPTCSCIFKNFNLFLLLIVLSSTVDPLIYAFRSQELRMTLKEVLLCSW

Melanocortin receptor 3 [2] = target: T1, Melanocortin receptor 3 (Mus musculus, UniProt P33033); assay: Agonist activity at mouse MC3R by alphascreen cAMP assay
T1 sequence (P33033 whole entry): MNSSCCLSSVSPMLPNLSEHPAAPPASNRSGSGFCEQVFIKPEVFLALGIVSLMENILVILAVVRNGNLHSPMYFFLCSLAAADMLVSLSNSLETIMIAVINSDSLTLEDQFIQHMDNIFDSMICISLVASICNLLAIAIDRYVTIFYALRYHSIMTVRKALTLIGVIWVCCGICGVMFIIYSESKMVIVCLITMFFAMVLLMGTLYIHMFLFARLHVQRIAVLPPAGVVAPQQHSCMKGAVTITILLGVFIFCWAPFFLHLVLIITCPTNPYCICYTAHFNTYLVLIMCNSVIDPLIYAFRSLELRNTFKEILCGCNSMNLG

Melanocortin receptor 4 [3] = target: T2, Melanocortin receptor 4 (Mus musculus, UniProt P56450); assay: Agonist activity at mouse MC4R by alphascreen cAMP assay
T2 sequence (P56450 whole entry): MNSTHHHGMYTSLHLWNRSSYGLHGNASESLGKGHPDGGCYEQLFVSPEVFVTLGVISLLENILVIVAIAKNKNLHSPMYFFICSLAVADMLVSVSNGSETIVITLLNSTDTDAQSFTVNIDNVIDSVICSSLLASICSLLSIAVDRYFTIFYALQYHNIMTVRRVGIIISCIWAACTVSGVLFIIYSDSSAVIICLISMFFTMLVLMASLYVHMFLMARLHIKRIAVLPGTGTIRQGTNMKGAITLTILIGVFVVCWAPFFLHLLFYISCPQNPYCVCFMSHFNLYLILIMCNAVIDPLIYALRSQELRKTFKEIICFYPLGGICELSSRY

[4] = target: Melanocortin receptor 5 (Mus musculus) (UniProt P41149); assay: Agonist activity at mouse MC5R at 100 uM by alphascreen cAMP assay relative to control
Melanocortin receptor 5 (Mus musculus), sequence (P41149 whole entry): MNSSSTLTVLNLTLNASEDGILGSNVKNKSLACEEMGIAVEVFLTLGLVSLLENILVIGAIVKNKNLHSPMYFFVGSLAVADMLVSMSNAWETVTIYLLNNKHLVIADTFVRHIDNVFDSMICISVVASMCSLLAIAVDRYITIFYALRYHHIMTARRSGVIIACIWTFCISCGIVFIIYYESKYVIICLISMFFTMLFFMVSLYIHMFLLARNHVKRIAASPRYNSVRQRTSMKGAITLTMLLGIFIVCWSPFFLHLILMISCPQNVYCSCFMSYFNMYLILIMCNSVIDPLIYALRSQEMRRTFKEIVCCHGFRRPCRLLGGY

Melanocortin receptor 3 [5] = target: T1, Melanocortin receptor 3; assay: Antagonist activity at mouse MC3R assessed as antagonist potency by alphascreen cAMP assay; settings: read-out: pA2 (converted)
Melanocortin receptor 4 [6] = target: T2, Melanocortin receptor 4; assay: Antagonist activity at mouse MC4R assessed as antagonist potency by alphascreen cAMP assay; settings: read-out: pA2 (converted)
[7] = target: Melanocyte-stimulating hormone receptor (Mus musculus, UniProt Q01727); assay: Agonist activity at mouse MC1R by alphascreen cAMP assay
Melanocyte-stimulating hormone receptor, sequence (Q01727 whole entry): as the sequence (Q01727 whole entry, looked up) above

Melanocortin receptor 5 = Melanocortin receptor 5 (Mus musculus, UniProt P41149); assay: Agonist activity at mouse MC5R by alphascreen cAMP assay
Melanocortin receptor 5, sequence (P41149 whole entry): as the sequence (P41149 whole entry) above

[8] = target: Melanocortin receptor 3 (Mus musculus) (UniProt P33033); assay: Agonist activity at mouse MC3R at 100 uM by alphascreen cAMP assay relative to control
Melanocortin receptor 3 (Mus musculus), sequence (P33033 whole entry): as the sequence (P33033 whole entry) above

Activity [1] [%] | EC50 (Melanocortin receptor 3 [2]) [µM] | EC50 (Melanocortin receptor 4 [3]) [µM] | Activity ([4]; filed as inverse agonist) [%] | Activity ([4]; filed as partial agonist) [%] | EC50 (Melanocortin receptor 5) [µM] | Activity [8] [%] | Activity ([8]; filed as agonist) [%] | Compound | Kb (Melanocortin receptor 3 [5]) [µM] | Kb (Melanocortin receptor 4 [6]) [µM] | EC50 [7] [µM]
60 | > 100 | > 100 | 10 |  |  |  |  | C[C@@H]1NC(=O)[C@H](CN)NC(=O)CN(Cc2ccccc2)C(=O)[C@H](Cc2ccccc2)NC(=O)[C@H](CCCNC(=N)N)NC(=O)[C@@H]2CCCN2C(=O)[C@H]2CCCN2C(=O)[C@H](Cc2ccccc2)NC1=O |  |  | 
80 | > 100 | > 100 |  | 70 |  |  |  | C[C@@H]1NC(=O)[C@H](CN)NC(=O)[C@H](Cc2ccccc2)NC(=O)CN(Cc2ccccc2)C(=O)[C@H](CCCNC(=N)N)NC(=O)[C@@H]2CCCN2C(=O)[C@H]2CCCN2C(=O)[C@H](Cc2ccccc2)NC1=O |  |  | 
 | > 100 | > 100 | 10 |  |  |  |  | C[C@@H]1NC(=O)[C@H](CC(N)=O)NC(=O)[C@H](Cc2ccccc2)NC(=O)CN(Cc2ccccc2)C(=O)[C@H](CCCNC(=N)N)NC(=O)[C@@H]2CCCN2C(=O)[C@H]2CCCN2C(=O)[C@H](Cc2ccccc2)NC1=O |  | > 3.16 | 
 |  |  | 10 |  |  | 20 |  | C[C@@H]1NC(=O)[C@H](CN)NC(=O)[C@H](Cc2ccccc2)NC(=O)[C@H](Cc2ccccc2)NC(=O)[C@H](CCCNC(=N)N)NC(=O)[C@@H]2CCCN2C(=O)[C@H]2CCCN2C(=O)[C@H](Cc2ccccc2)NC1=O |  |  | 
70 | > 100 | > 100 | 10 |  |  |  |  | C[C@@H]1NC(=O)[C@H](CC(N)=O)NC(=O)CN(Cc2ccccc2)C(=O)[C@H](Cc2ccccc2)NC(=O)[C@H](CCCNC(=N)N)NC(=O)[C@@H]2CCCN2C(=O)[C@H]2CCCN2C(=O)[C@H](Cc2ccccc2)NC1=O |  |  | 
85 |  | > 100 |  |  | > 100 |  | 60 | C[C@@H]1NC(=O)[C@H](CC(N)=O)NC(=O)[C@H](Cc2ccccc2)NC(=O)[C@H](Cc2ccccc2)NC(=O)[C@H](CCCNC(=N)N)NC(=O)[C@@H]2CCCN2C(=O)[C@H]2CCCN2C(=O)CN(Cc2ccccc2)C1=O | > 3.16 | > 3.16 | 

The remaining lines, values behind:

Compound | Activity [1] [%] | EC50 (Melanocortin receptor 3 [2]) [µM] | EC50 (Melanocortin receptor 4 [3]) [µM] | Activity ([4]; filed as inverse agonist) [%] | Activity ([4]; filed as partial agonist) [%] | EC50 (Melanocortin receptor 5) [µM] | Activity [8] [%] | Activity ([8]; filed as agonist) [%] | Kb (Melanocortin receptor 3 [5]) [µM] | Kb (Melanocortin receptor 4 [6]) [µM] | EC50 [7] [µM]
C[C@@H]1NC(=O)CN(CCN)C(=O)[C@H](Cc2ccccc2)NC(=O)[C@H](Cc2ccccc2)NC(=O)[C@H](CCCNC(=N)N)NC(=O)[C@@H]2CCCN2C(=O)[C@H]2CCCN2C(=O)[C@H](Cc2ccccc2)NC1=O | 60 | > 100 | > 100 | 10 |  |  |  |  | 0.126 | 0.00398 | 
CN1CC(=O)N[C@@H](Cc2ccccc2)C(=O)N2CCC[C@@H]2C(=O)N2CCC[C@H]2C(=O)N[C@@H](CCCNC(=N)N)C(=O)N[C@@H](Cc2ccccc2)C(=O)N[C@@H](Cc2ccccc2)C(=O)N[C@@H](CN)C1=O |  | > 100 | > 100 |  |  | > 100 |  |  | 2.51 | 0.794 | > 100
C[C@@H]1NC(=O)[C@H](CC(N)=O)NC(=O)[C@H](Cc2ccccc2)NC(=O)[C@H](Cc2ccccc2)NC(=O)CN(CCCNC(=N)N)C(=O)[C@@H]2CCCN2C(=O)[C@H]2CCCN2C(=O)[C@H](Cc2ccccc2)NC1=O (HELM PEPTIDE1{P.[N=C(N)NCCCN(CC(=O)[*:2])[*:1]].F.F.N.A.F.[dP]}$PEPTIDE1,PEPTIDE1,1:R1-8:R2$$$V2.0) | 50 | > 100 | > 100 |  |  | > 100 |  |  | > 3.16 | > 3.16 | 
CN1CC(=O)N[C@@H](Cc2ccccc2)C(=O)N2CCC[C@@H]2C(=O)N2CCC[C@H]2C(=O)N[C@@H](CCCNC(=N)N)C(=O)N[C@@H](Cc2ccccc2)C(=O)N[C@@H](Cc2ccccc2)C(=O)N[C@@H](CC(N)=O)C1=O (HELM PEPTIDE1{P.R.F.F.N.[Sar].F.[dP]}$PEPTIDE1,PEPTIDE1,1:R1-8:R2$$$V2.0) |  | > 100 | > 100 |  |  | > 100 |  |  | > 3.16 | > 3.16 | 
C[C@@H]1NC(=O)[C@H](CN)NC(=O)[C@H](Cc2ccccc2)NC(=O)[C@H](Cc2ccccc2)NC(=O)[C@H](CCCNC(=N)N)NC(=O)[C@@H]2CCCN2C(=O)[C@H]2CCCN2C(=O)CN(Cc2ccccc2)C1=O |  | > 100 | > 100 | 10 |  |  |  |  | 3.16 | 0.251 | > 100
C[C@@H]1NC(=O)[C@H](CN)NC(=O)[C@H](Cc2ccccc2)NC(=O)[C@H](Cc2ccccc2)NC(=O)CN(CCCNC(=N)N)C(=O)[C@@H]2CCCN2C(=O)[C@H]2CCCN2C(=O)[C@H](Cc2ccccc2)NC1=O (HELM PEPTIDE1{[N=C(N)NCCCN(CC(=O)[*:2])[*:1]].F.F.[NC[C@H](N[*:1])C(=O)[*:2]].A.F.[dP].P}$PEPTIDE1,PEPTIDE1,1:R1-8:R2$$$V2.0) |  | > 100 | > 100 |  |  | > 100 |  |  | 1.26 | > 3.16 | > 100
